Results published in PMC11249646, “Small-Molecule Disruptors of the Interaction between Calcium- and Integrin-Binding Protein 1 and Integrin αIIbβ3 as Novel Antiplatelet Agents” (ACS Pharmacology & Translational Science, 2024).
pIC50: −log10 of the molar value. Like-named read-outs stand apart in the source and are kept apart here.

Key:
[1] = target: T1, CIB1 and αIIb interaction (GST-CIB1 : F-αIIb peptide) (Homo sapiens, UniProt Q99828); assay: FP assay, 384-well format (screen); type: binding; parameters: 384-well SCREEN Efficacy (%): concentration or dose not given beside the values; details: F-αIIb peptide; for 384-well SCREEN Confirm?: YES/NO; for pIC50: read-out: 384-well SCREEN IC50
T1 construct: made in house; host or cells: BL-21 plus RIL cells (E. coli)
T1 sequence (Q99828 1-191): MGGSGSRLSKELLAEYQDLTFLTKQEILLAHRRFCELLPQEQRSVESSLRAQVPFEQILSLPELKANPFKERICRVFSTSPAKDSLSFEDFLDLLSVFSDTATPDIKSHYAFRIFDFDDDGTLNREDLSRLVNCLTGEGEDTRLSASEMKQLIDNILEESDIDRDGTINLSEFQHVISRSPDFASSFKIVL

[2] = target: T2, GST-CIB1:F-αIIb interaction (Homo sapiens, UniProt Q99828); assay: Gel-based (in-gel) binding assay; details: 1 μM GST-CIB1, 400 nM F-αIIb; for Active in Gel Assay?: 60 μM, 1:2, 4-points
T2 construct: made in house; host or cells: BL-21 plus RIL cells (E. coli)
T2 sequence (Q99828 1-191): T1 sequence (Q99828 1-191)

[3] = target: T3, GST-CIB1 : F-scrambled peptide (Homo sapiens, UniProt Q99828); assay: FP scrambled-peptide counter screen, 1536-well format; type: binding; details: scrambled-peptide counterscreen; for COUNTERSCREEN Confirm?: YES/NO call; for COUNTERSCREEN Curve Class: qHTS curve class
T3 construct: made in house; host or cells: BL-21 plus RIL cells (E. coli)
T3 sequence (Q99828 1-191): T1 sequence (Q99828 1-191)

[4] = target: T4, GST-CIB1 : F-αIIb peptide (Homo sapiens, UniProt Q99828); assay: FP assay in the presence of glutathione (GSH), thiol reactivity; type: binding; details: for shift in potency in the presence of GSH: with vs without 10 μM reduced GSH; for GSH/CIB1 IC50 ratio: ratio of GSH (+) IC50 to GSH (-) IC50
T4 construct: made in house; host or cells: BL-21 plus RIL cells (E. coli)
T4 sequence (Q99828 1-191): T1 sequence (Q99828 1-191)

[5] = target: T3, GST-CIB1 : F-scrambled peptide; assay: FP scrambled-peptide counter screen, 384-well format; type: binding; details: F-scrambled peptide; for 384-well COUNTERSCREEN Confirm?: *: Curve in opposite direction; for pIC50: read-out: 384-well COUNTERSCREEN IC50
[6] = target: T5, CIB1 and αIIb interaction (CIB1-GST : F-αIIb peptide) (Homo sapiens, UniProt Q99828); assay: FP assay, 1536-well qHTS format (primary and confirmatory screen); type: binding; details: for CONFIRMATORY SCREEN Confirm?: YES/NO call; for CONFIRMATORY SCREEN Curve Class: qHTS curve class; for CONFIRMATORY SCREEN Curve Class / Curve Class: negative sign = inhibitory curve; for CONFIRMATORY SCREEN Efficacy (%) / Efficacy (%): negative = inhibition
T5 construct: made in house; host or cells: BL-21 plus RIL cells (E. coli)
T5 sequence (Q99828 1-191): T1 sequence (Q99828 1-191)

[7] = concentrations tested 60, 30, 15, 7.5
[8] = FP assay in the presence of glutathione (GSH +), read-out: GSH (+) Assay IC50
[9] = FP assay without glutathione (GSH -), read-out: GSH (-) Assay IC50
[10] = confirmatory screen, read-out: CONFIRMATORY SCREEN IC50
[11] = qHTS FP screen hits, Table S2, one class per curve where COUNT > 1
[12] = qHTS primary screen hits, Table S2
[13] = qHTS primary screen hits, Table S2, read-out: IC50

| pIC50 [4, 8] | pIC50 [4, 9] | COUNTERSCREEN Curve Class [3] | shift in potency in the presence of GSH [4] | SMILES | 384-well SCREEN Efficacy (%) [1] [%] | 384-well SCREEN Confirm? [1] | pIC50 [1] | Active in Gel Assay? [2] | COUNTERSCREEN Efficacy (%) [3] [%] | COUNTERSCREEN Confirm? [3] | 384-well COUNTERSCREEN Efficacy (%) [5] [%] | 384-well COUNTERSCREEN Confirm? [5] | pIC50 [5] | CONFIRMATORY SCREEN Confirm? ([6]; confirmatory screen) | CONFIRMATORY SCREEN Curve Class ([6]; confirmatory screen) | CONFIRMATORY SCREEN Efficacy (%) ([6]; confirmatory screen) | pIC50 [6, 10] | Efficacy (%) ([6]; qHTS FP screen hits, Table S2) | Curve Class [6, 11] | Inhibited concentration in gel (µM) [2, 7] | other results |
| --- | --- | --- | --- | --- | --- | --- | --- | --- | --- | --- | --- | --- | --- | --- | --- | --- | --- | --- | --- | --- | --- |
| < 3.92 | 5.21 | 4 | right-shift in potency | CC(C)(C)c1ccc(SC2=NS(=O)(=O)c3ccccc32)cc1 [NCGC00189495-01] | 35 | YES | 5.05 | YES | 0 | YES | 25 | YES | < 3.92 | YES | -2.4 | -62 | 4.50 | -38 | -2.2 | 60,30 µM | GSH/CIB1 IC50 ratio [4]: 28.3; pIC50 ([6]; qHTS FP screen hits, Table S2, read-out: IC50): 4.40 |
| 4.99 | 6.63 | 4 | right-shift in potency | O=c1[nH]sc2cc(Cl)ccc12 [NCGC00262908-01, ticlatone, reference compound] | 79 | YES | 6.25 | YES | 10 | YES | 95 | YES | < 3.92 | YES | -1.2 | -50 | 5.55 |  |  |  | GSH/CIB1 IC50 ratio [4]: 44.0; Efficacy (%) [6, 12]: -68%; Curve Class [6, 12]: -1.2; pIC50 [6, 13]: 5.46 |

| SMILES | pIC50 [4, 8] | pIC50 [4, 9] | COUNTERSCREEN Curve Class [3] | shift in potency in the presence of GSH [4] | 384-well SCREEN Efficacy (%) [1] [%] | 384-well SCREEN Confirm? [1] | pIC50 [1] | Active in Gel Assay? [2] | COUNTERSCREEN Efficacy (%) [3] [%] | COUNTERSCREEN Confirm? [3] | 384-well COUNTERSCREEN Efficacy (%) [5] [%] | 384-well COUNTERSCREEN Confirm? [5] | pIC50 [5] | CONFIRMATORY SCREEN Confirm? ([6]; confirmatory screen) | CONFIRMATORY SCREEN Curve Class ([6]; confirmatory screen) | CONFIRMATORY SCREEN Efficacy (%) ([6]; confirmatory screen) | pIC50 [6, 10] | Efficacy (%) ([6]; qHTS FP screen hits, Table S2) | Curve Class [6, 11] | Inhibited concentration in gel (µM) [2, 7] | other results |
| --- | --- | --- | --- | --- | --- | --- | --- | --- | --- | --- | --- | --- | --- | --- | --- | --- | --- | --- | --- | --- | --- |
| O=C1C(I)=CC(=C(c2cc(I)c([O-])c(I)c2)c2ccccc2C(=O)[O-])C=C1I.[Na+].[Na+] [NCGC00161636-02] | 4.55 | 4.80 |  |  | 78 | YES | 4.50 | YES | 435 | YES | 105 | YES | 4.85 | YES | -1.2 | -74 | 4.95 | -47 | -1.2 |  | Inhibited concentration in gel [2, 7]: 60 µM; pIC50 ([3]; read-out: COUNTERSCREEN IC50): 4.05; GSH Assay Result ([4]; thiol reactivity call: No change / Active): No change; IC50 ([6]; IC50 [μM], qHTS FP screen hits, Table S2): 17.8 µM |
| S=C(SSC(=S)N1CCCCC1)N1CCCCC1 [NCGC00181776-02, dipentamethylenethiuram disulfide] |  |  | 4 | right-shift in potency | 80 | YES | 5.20 | YES | 0 | YES | 38 | YES | < 3.92 | YES | -1.4 | -72 | 4.60 |  |  | 60,30 µM | Efficacy (%) [6, 12]: -64%; Curve Class ([6]; qHTS primary screen hits, Table S2, several classes where COUNT > 1): -1.2; pIC50 [6, 13]: 4.55 |
